In the NIST ThermoML archive (doi:10.1016/j.fluid.2005.06.024):
± gives the expanded uncertainty stated by the source.

Tests used:
[1] = 298.15 K; 101.3 kPa; Liquid
[2] = xn = mol fraction of the nth substance listed; settings: 298.15 K, 101.3 kPa, Liquid

CC(C)=O [acetone]
mass density [1]: 784.37 ± 0.31 kg/m3
speed of sound [1]: 1162 ± 2 m/s

CC(C)=O [acetone] + CCOC(=O)OCC
mass density ([2]; x1 = 1): 784.37 ± 0.31 kg/m3
speed of sound ([2]; x1 = 1): 1162 ± 2 m/s

CCC(C)=O [butanone]
mass density [1]: 799.7 ± 0.35 kg/m3
speed of sound [1]: 1192 ± 2 m/s

CCC(C)=O [butanone] + CCOC(=O)OCC
mass density ([2]; x1 = 1): 799.7 ± 0.35 kg/m3
speed of sound ([2]; x1 = 1): 1192 ± 2 m/s

CCOC(=O)OCC [diethyl carbonate]
mass density [1]: 969.24 ± 0.27 kg/m3
speed of sound [1]: 1178 ± 2 m/s

CCOC(=O)OCC [diethyl carbonate] + CC(C)=O
mass density ([2]; x2 = 0): 969.24 ± 0.27 kg/m3
speed of sound ([2]; x2 = 0): 1178 ± 2 m/s
mass density ([2]; x2 = 0.0384): 964.96 ± 0.27 kg/m3
speed of sound ([2]; x2 = 0.0384): 1177 ± 2 m/s
mass density ([2]; x2 = 0.0901): 959 ± 0.26 kg/m3
speed of sound ([2]; x2 = 0.0901): 1176 ± 2 m/s
mass density ([2]; x2 = 0.1832): 947.54 ± 0.26 kg/m3
speed of sound ([2]; x2 = 0.1832): 1175 ± 2 m/s
mass density ([2]; x2 = 0.2827): 934.21 ± 0.25 kg/m3
speed of sound ([2]; x2 = 0.2827): 1173 ± 2 m/s
mass density ([2]; x2 = 0.3847): 919.29 ± 0.25 kg/m3
speed of sound ([2]; x2 = 0.3847): 1171 ± 2 m/s
mass density ([2]; x2 = 0.4847): 903.08 ± 0.26 kg/m3
speed of sound ([2]; x2 = 0.4847): 1170 ± 2 m/s
mass density ([2]; x2 = 0.5888): 884.33 ± 0.26 kg/m3
speed of sound ([2]; x2 = 0.5888): 1168 ± 2 m/s
mass density ([2]; x2 = 0.6936): 863.26 ± 0.26 kg/m3
speed of sound ([2]; x2 = 0.6936): 1166 ± 2 m/s
mass density ([2]; x2 = 0.7967): 839.9 ± 0.27 kg/m3
speed of sound ([2]; x2 = 0.7967): 1164 ± 2 m/s
mass density ([2]; x2 = 0.9017): 813 ± 0.29 kg/m3
speed of sound ([2]; x2 = 0.9017): 1162 ± 2 m/s
mass density ([2]; x2 = 0.9546): 798.07 ± 0.3 kg/m3
speed of sound ([2]; x2 = 0.9546): 1162 ± 2 m/s

CCOC(=O)OCC [diethyl carbonate] + CCC(C)=O
mass density ([2]; x2 = 0): 969.24 ± 0.27 kg/m3
speed of sound ([2]; x2 = 0): 1178 ± 2 m/s
mass density ([2]; x2 = 0.0486): 963.14 ± 0.27 kg/m3
speed of sound ([2]; x2 = 0.0486): 1178 ± 2 m/s
mass density ([2]; x2 = 0.1002): 956.52 ± 0.28 kg/m3
speed of sound ([2]; x2 = 0.1002): 1179 ± 2 m/s
mass density ([2]; x2 = 0.1958): 943.68 ± 0.28 kg/m3
speed of sound ([2]; x2 = 0.1958): 1180 ± 2 m/s
mass density ([2]; x2 = 0.2977): 929.22 ± 0.29 kg/m3
speed of sound ([2]; x2 = 0.2977): 1181 ± 2 m/s
mass density ([2]; x2 = 0.399): 913.95 ± 0.29 kg/m3
speed of sound ([2]; x2 = 0.399): 1182 ± 2 m/s
mass density ([2]; x2 = 0.4976): 898.2 ± 0.31 kg/m3
speed of sound ([2]; x2 = 0.4976): 1184 ± 2 m/s
mass density ([2]; x2 = 0.6444): 872.87 ± 0.31 kg/m3
speed of sound ([2]; x2 = 0.6444): 1186 ± 2 m/s
mass density ([2]; x2 = 0.7172): 859.36 ± 0.32 kg/m3
speed of sound ([2]; x2 = 0.7172): 1187 ± 2 m/s
mass density ([2]; x2 = 0.8294): 837.19 ± 0.33 kg/m3
speed of sound ([2]; x2 = 0.8294): 1189 ± 2 m/s
mass density ([2]; x2 = 0.9031): 821.58 ± 0.34 kg/m3
speed of sound ([2]; x2 = 0.9031): 1190 ± 2 m/s
mass density ([2]; x2 = 0.9554): 810.05 ± 0.34 kg/m3
speed of sound ([2]; x2 = 0.9554): 1191 ± 2 m/s

CCOC(=O)OCC [diethyl carbonate] + CCCC(C)=O
mass density ([2]; x2 = 0): 969.24 ± 0.27 kg/m3
speed of sound ([2]; x2 = 0): 1178 ± 2 m/s

CCCC(C)=O [pentan-2-one]
mass density [1]: 801.39 ± 0.35 kg/m3
speed of sound [1]: 1212 ± 2 m/s

CCCC(C)=O [pentan-2-one] + CCOC(=O)OCC
mass density ([2]; x1 = 0.0483): 962.08 ± 0.27 kg/m3
speed of sound ([2]; x1 = 0.0483): 1179 ± 2 m/s
mass density ([2]; x1 = 0.0983): 954.6 ± 0.28 kg/m3
speed of sound ([2]; x1 = 0.0983): 1180 ± 2 m/s
mass density ([2]; x1 = 0.1923): 940.27 ± 0.28 kg/m3
speed of sound ([2]; x1 = 0.1923): 1183 ± 2 m/s
mass density ([2]; x1 = 0.2988): 923.61 ± 0.29 kg/m3
speed of sound ([2]; x1 = 0.2988): 1187 ± 2 m/s
mass density ([2]; x1 = 0.3998): 907.38 ± 0.3 kg/m3
speed of sound ([2]; x1 = 0.3998): 1190 ± 2 m/s
mass density ([2]; x1 = 0.4996): 890.92 ± 0.31 kg/m3
speed of sound ([2]; x1 = 0.4996): 1193 ± 2 m/s
mass density ([2]; x1 = 0.6034): 873.34 ± 0.31 kg/m3
speed of sound ([2]; x1 = 0.6034): 1197 ± 2 m/s
mass density ([2]; x1 = 0.7077): 855.18 ± 0.32 kg/m3
speed of sound ([2]; x1 = 0.7077): 1201 ± 2 m/s
mass density ([2]; x1 = 0.8037): 838 ± 0.33 kg/m3
speed of sound ([2]; x1 = 0.8037): 1204 ± 2 m/s
mass density ([2]; x1 = 0.9026): 819.83 ± 0.34 kg/m3
speed of sound ([2]; x1 = 0.9026): 1208 ± 2 m/s
mass density ([2]; x1 = 0.9491): 811.1 ± 0.34 kg/m3
speed of sound ([2]; x1 = 0.9491): 1210 ± 2 m/s
mass density ([2]; x1 = 1): 801.39 ± 0.35 kg/m3
speed of sound ([2]; x1 = 1): 1212 ± 2 m/s
